Where a SMILES comes first, the peptide text is derived from it. Bridges are numbered along the chain shown (N, C = ends). [ ]: non-standard residue; d: D form. The star is where a group is joined. X1 = NC[C@@H](CC(=O)*)c1cccc(Cl)c1; Dab = NCC[C@H](N)C(=O)O; Dap = NC[C@H](N)C(=O)O
How the values were obtained:
[1] = test system: A. baumannii ATCC 17978 (SEN) and A. baumannii ATCC BAA-1605 (MDR); assay: Frequency-of-resistance (FoR) assay, relative MIC of mutants; format: cell-based, Acinetobacter baumannii
Procedure: (§1) The susceptibility of antibiotics to resistance development was evaluated in two strains of each bacterial species: a multidrug-resistant strain and an antibiotic-sensitive strain of Escherichia coli, Klebsiella pneumoniae, Acinetobacter baumannii, and Pseudomonas aeruginosa. To explore first-step resistance, we previously used a standard protocol for spontaneous frequency-of-resistance analysis (FoR assay) at multiple concentrations of each antibiotic[10],[28],[31]–[33]. […] For all other combinations, approximately 10^10 bacterial cells were exposed to one of each antibiotic on agar plates for two days at concentrations where the given strain is susceptible. We examined resistance levels by contrasting the minimum inhibitory concentration (MICs) of the mutated strains to the original wild-type bacterial strain (i.e., relative MIC).
(§2) To estimate the frequency of spontaneous mutations that confer resistance in a microbial population, we conducted a frequency of resistance (FoR) assay following established protocols[10],[31]–[33]. […] Prior to plating, bacteria were grown overnight in MHB medium at 37 °C and 250 RPM, then centrifuged and washed in MHB. All experiments were performed in triplicate, and plates were incubated at 37 °C for 48 hours. Total colony-forming units (CFUs) were determined by plating appropriate dilutions onto antibiotic-free MHB agar. Resistance frequencies were calculated by dividing the number of resistant colonies by the initial viable cell count. From the plates with the highest antibiotic concentration, ten colonies were selected for MIC determination and whole-genome sequencing.
(§3) A robotic liquid handling system was used to automatically prepare a 11 to 16-step serial dilution in 384-well microtiter plates (Greiner). A final concentration of 5 × 10^5 bacterial cells per mL were inoculated into each well containing 60 µL MHB medium. Bacterial cultures were incubated at 37 °C with continuous shaking (Infors shaker, 900 rpm with 3 mm throw) for 18 hours (2 replicates from each). Cell growth was monitored by measuring the optical density (OD600 values, using Biotek Synergy microplate reader). MIC was defined as the antibiotic concentration of complete growth inhibition (i.e., OD600 < 0.05). Relative MIC was calculated as follows:1 relativeMIC=MICevolved/MICancestor […]
(§4) Supplementary Figure 3. Resistance levels following the frequency of resistance assay across bacterial strains. The level of resistance was measured as the fold change in relative MIC between evolved and ancestral strains. Data are grouped by bacterial strain (A. baumannii (AB), E. coli (EC), K. pneumoniae (KP), and P. aeruginosa (PA)) and categorized as either multidrug-resistant (MDR) or sensitive (SEN). Each data point represents a laboratory evolved line, and boxplots show the median, first and third quartiles, with whiskers indicating the 5th and 95th percentiles. […]
(§5) analysis was performed using two-sided Dunn’s post-hoc test with Benjamini-Hochberg correction for multiple comparisons (**/ * indicates p < 0.01/ 0.05). For detailed information on antibiotic and bacterial species, see Supplementary Table 1. For mode of action groups, refer to Table 1. Source data are provided as a Source Data file.

[2] = test system: K. pneumoniae ATCC 10031 (SEN) and K. pneumoniae ATCC 700603 (MDR); assay: microbe, parasite or virus in culture; format: cell-based, Klebsiella pneumoniae; conditions: for MIC: across three biological replicates
Procedure: This study focused on multiple bacterial strains, as follows. For the FoR and ALE experiments, 2 strains per species were chosen: E. coli ATCC 25922, K. pneumoniae ATCC 10031, A. baumannii ATCC 17978, and P. aeruginosa ATCC BAA-3107 as sensitive (SEN) strains, and E. coli NCTC13846, K. pneumoniae ATCC 700603, A. baumannii ATCC BAA-1605 and P. aeruginosa LESB58 as multi-drug resistant (MDR) strains. Functional metagenomic screens were performed with E. coli ATCC 25922 and K. pneumoniae ATCC 10031 strains. To determine the dose-kill properties of the different antibiotics, an E. coli strain (ATCC 25922) expressing a yellow fluorescent protein (pZS2R, YFP, CHL^R) and a red fluorescent protein (pZS2R, mCherry, CHL^R) was used.
Unless otherwise indicated, cation-adjusted Mueller-Hinton Broth 2 (MHB, Millipore) medium was used throughout the study, except for SCH79797 (SCH).
A robotic liquid handling system was used to automatically prepare a 11 to 16-step serial dilution in 384-well microtiter plates (Greiner). A final concentration of 5 × 10^5 bacterial cells per mL were inoculated into each well containing 60 µL MHB medium. Bacterial cultures were incubated at 37 °C with continuous shaking (Infors shaker, 900 rpm with 3 mm throw) for 18 hours (2 replicates from each). Cell growth was monitored by measuring the optical density (OD600 values, using Biotek Synergy microplate reader). MIC was defined as the antibiotic concentration of complete growth inhibition (i.e., OD600 < 0.05). Relative MIC was calculated as follows:1 relativeMIC=MICevolved/MICancestor

[3] = test system: K. pneumoniae ATCC 10031 (SEN) and K. pneumoniae ATCC 700603 (MDR); assay: Frequency-of-resistance (FoR) assay, relative MIC of mutants; format: cell-based, Klebsiella pneumoniae
Procedure: as §1, §2, §3, §4, §5

[4] = Acinetobacter baumannii ATCC 17978 (AB-SEN), evolved line 1
[5] = Acinetobacter baumannii ATCC 17978 (AB-SEN), evolved line 2
[6] = Acinetobacter baumannii ATCC 17978 (AB-SEN), evolved line 3
[7] = Acinetobacter baumannii ATCC BAA 1605 (AB-MDR), evolved line 3
[8] = Klebsiella pneumoniae ATCC 10031 (KP-SEN), ancestor strain, sheet fig 2a
[9] = Klebsiella pneumoniae ATCC 700603 (KP-MDR), ancestor strain, sheet fig 2a
[10] = ancestor KP-SEN (Klebsiella pneumoniae ATCC 10031)
[11] = Klebsiella pneumoniae ATCC 10031 (KP-SEN), evolved line 1
[12] = Klebsiella pneumoniae ATCC 10031 (KP-SEN), evolved line 2
[13] = Klebsiella pneumoniae ATCC 10031 (KP-SEN), evolved line 3
[14] = Klebsiella pneumoniae ATCC 700603 (KP-MDR), evolved line 1
[15] = Klebsiella pneumoniae ATCC 700603 (KP-MDR), evolved line 2
[16] = Klebsiella pneumoniae ATCC 700603 (KP-MDR), evolved line 3

CC(C)C[C@@H]1NC(=O)[C@@H](Cc2ccccc2)NC(=O)[C@H](CCN)NC(=O)[C@@H](NC(=O)[C@H](CN)NC(=O)[C@@H](NC(=O)C[C@H](CN)c2cccc(Cl)c2)[C@@H](C)O)CCNC(=O)[C@H]([C@@H](C)O)NC(=O)[C@H](CCN)NC(=O)[C@H](CCN)NC1=O [SPR206] (X1-T[Dap][Dab][Dab][dF]L[Dab][Dab]T; lactam 3-C (inferred); N-terminus assumed)
2: Relative MIC ([1]; Acinetobacter baumannii ATCC BAA 1605 (AB-MDR), evolved line 1 versus ancestor) | Relative MIC ([1]; Acinetobacter baumannii ATCC BAA 1605 (AB-MDR), evolved line 2 versus ancestor) | Relative MIC ([1]; Acinetobacter baumannii ATCC BAA 1605 (AB-MDR), evolved line 3 versus ancestor) | Relative MIC ([1]; FoR assay, Acinetobacter baumannii ATCC BAA 1605 (AB-MDR), evolved line 1) | Relative MIC ([1]; FoR assay, Acinetobacter baumannii ATCC BAA 1605 (AB-MDR), evolved line 2) | Relative MIC ([1]; FoR assay, Acinetobacter baumannii ATCC BAA 1605 (AB-MDR), evolved line 3)
128 µg/mL: MIC of evolved line [3, 13]
0.25 µg/mL: MIC of evolved line ([1]; Acinetobacter baumannii ATCC BAA 1605 (AB-MDR), evolved line 2) | MIC of evolved line ([1]; Acinetobacter baumannii ATCC BAA 1605 (AB-MDR), evolved line 1) | MIC of evolved line [1, 7] | MIC of evolved line [3, 12]
1: Relative MIC ([1]; Acinetobacter baumannii ATCC 17978 (AB-SEN), evolved line 1 versus ancestor) | Relative MIC ([1]; Acinetobacter baumannii ATCC 17978 (AB-SEN), evolved line 2 versus ancestor) | Relative MIC ([1]; Acinetobacter baumannii ATCC 17978 (AB-SEN), evolved line 3 versus ancestor) | Relative MIC ([1]; FoR assay, Acinetobacter baumannii ATCC 17978 (AB-SEN), evolved line 1) | Relative MIC ([1]; FoR assay, Acinetobacter baumannii ATCC 17978 (AB-SEN), evolved line 2) | Relative MIC ([1]; FoR assay, Acinetobacter baumannii ATCC 17978 (AB-SEN), evolved line 3) | Relative MIC ([3]; FoR assay, Klebsiella pneumoniae ATCC 10031 (KP-SEN), evolved line 2) | Relative MIC ([3]; Klebsiella pneumoniae ATCC 10031 (KP-SEN), evolved line 2 versus ancestor)
32 µg/mL: MIC of evolved line [3, 11] | MIC of evolved line [3, 14] | MIC of evolved line [3, 15] | MIC of evolved line [3, 16]
0.5 µg/mL: MIC of ancestor [2, 8] | MIC ([2]; Klebsiella pneumoniae ATCC 10031 (KP-SEN)) | MIC of ancestor [2, 9] | MIC ([2]; Klebsiella pneumoniae ATCC 700603 (KP-MDR)) | MIC of ancestor ([2]; ancestor KP-MDR (Klebsiella pneumoniae ATCC 700603)) | MIC of ancestor [2, 10]
256: Relative MIC ([3]; FoR assay, Klebsiella pneumoniae ATCC 10031 (KP-SEN), evolved line 3) | Relative MIC ([3]; Klebsiella pneumoniae ATCC 10031 (KP-SEN), evolved line 3 versus ancestor)
0.125 µg/mL: MIC of evolved line [1, 4] | MIC of evolved line [1, 5] | MIC of evolved line [1, 6]
64: Relative MIC ([3]; FoR assay, Klebsiella pneumoniae ATCC 10031 (KP-SEN), evolved line 1) | Relative MIC ([3]; FoR assay, Klebsiella pneumoniae ATCC 700603 (KP-MDR), evolved line 1) | Relative MIC ([3]; FoR assay, Klebsiella pneumoniae ATCC 700603 (KP-MDR), evolved line 2) | Relative MIC ([3]; FoR assay, Klebsiella pneumoniae ATCC 700603 (KP-MDR), evolved line 3) | Relative MIC ([3]; Klebsiella pneumoniae ATCC 10031 (KP-SEN), evolved line 1 versus ancestor) | Relative MIC ([3]; Klebsiella pneumoniae ATCC 700603 (KP-MDR), evolved line 1 versus ancestor) | Relative MIC ([3]; Klebsiella pneumoniae ATCC 700603 (KP-MDR), evolved line 2 versus ancestor) | Relative MIC ([3]; Klebsiella pneumoniae ATCC 700603 (KP-MDR), evolved line 3 versus ancestor)

polymyxin-B
4 µg/mL: MIC of evolved line [3, 15]
16 µg/mL: MIC of evolved line [1, 7]
1 µg/mL: MIC of ancestor ([2]; Klebsiella pneumoniae ATCC 700603 (KP-MDR), ancestor) | MIC of ancestor [2, 9]
32 µg/mL: MIC of evolved line [3, 16]
0.5 µg/mL: MIC of evolved line [1, 4] | MIC of evolved line [1, 5] | MIC of evolved line [1, 6] | MIC of evolved line [3, 14]
2 µg/mL: MIC of ancestor [2, 8] | MIC of ancestor [2, 10] | MIC of evolved line [3, 11] | MIC of evolved line [3, 12] | MIC of evolved line [3, 13]

Reference: article PMC11845477, “Exploring the principles behind antibiotics with limited resistance” (Nature Communications, 2025)
